US7993687B2, “Compositions and methods for management of diabetes” (priority 2006, dated 2011)

Assays:
Format in all cases: cell-based, rat
[1] = tested on: p42/44 MAPK (Thr202/Tyr204); assay: Western blot of MAPK phosphorylation in H4IIE cells; details: for p42/44 P-MAPK (Thr202/Tyr204) phosphorylation, stimulation (fold) relative to the control / phosphorylation of MAPK, stimulation (fold) relative to the control (Table 6): 6 min, one experiment; for effect of the inhibitor on insulin- and BWE-stimulated phosphorylation of MAPK: preincubation with inhibitor, then insulin or BWE for 6 minutes
Description: Tissue culture media, antibiotics, fetal bovine serum (FBS) and Nunc tissue culture plates were purchased from Invitrogen Canada Inc. (Burlington, Ontario, Canada, L7P 1A1). Insulin (Sigma-Aldrich Canada Ltd., Oakville, Ontario, Canada, L6H 6J8) was dissolved in water and added directly to cells at a concentration of 250 nM unless otherwise indicated. The BWE was prepared and analyzed as described in Example 1. Two μL of the BWE were added directly to cells unless otherwise indicated. […] Myo-inositol (Sigma-Aldrich Canada Ltd.) and D-chiro-inositol (Industrial Research Ltd., Wellington, New Zealand) were dissolved in water at an equal concentration to the amounts present in the BWE (Table 3) and 2 μL of each solution (0.1% v/v final concentration) was added directly to cells.
(§1) Rat H4IIE hepatoma cells (American Type Culture Collection, CRL 1548) were cultured following the method disclosed by Yau et al., (1998, Eur. J. Biochem. 253: 91-1). The H4IIE cells were maintained in α-modified Eagle's media containing 10% FBS, 2 mM glutamine, 25 μg·mL^−1 streptomycin and 25 units·mL^−1 penicillin. Cells were plated and grown to 70% confluence. All cells were placed into serum-free medium for 72 h before addition of stimulating agents to ensure entry into a quiescent state.
(§2) Cultures of quiescent H4IIE cells or quiescent FAO cells were placed into 12-well culture dishes containing 2 mL serum-free medium, and then stimulated by direct addition of the inhibitors listed in Table 1 (volumes of additions were 10 μL or less) without replacing the medium. […] The cells in 12-well culture dishes were incubated with stimulating agents for 6 minutes and rinsed with phosphate buffered saline (PBS; 0.9% NaCl, 0.1 M Na3PO4, pH 7.1).
(§3) Cellular protein extracts were prepared by addition of 200 μL 2×SDS/gel loading buffer (0.125 M Tris pH 6.8, 2% SDS, 10% glycerol) to H4IIE cells in 12-well culture dishes. The samples were briefly sonicated, and protein content measured using the BCA protein assay kit. Aliquots containing equal amounts of protein were mixed with bromophenol blue (0.5% (w/v) final concentration) and 2-mercaptoethanol (5% (v/v) final concentration), heated at 95° C. and loaded onto 7.5% or 10% polyacrylamide gels. […] Primary antibodies (diluted 1:1000 in 3% (w/v) BSA) were incubated with the membrane for 60 min at 22° C. Membranes were subsequently washed four times and incubated for an additional 60 min at 1 8-22° C. in 1% (w/v) BSA-TBST with diluted HRP-coupled secondary antibody (1:10 000). HRP was detected using the ECL chemiluminescent system after the membranes had been washed four times.
Quantification of data obtained on film (Kodak X-omat) was accomplished with a GS800 imaging densitometer (Bio-Rad Laboratories) under nonsaturating conditions with local background subtraction. Although multiple exposures were acquired to ensure the absence of film saturation, the experimental figures typically show longer exposures selected specifically for visual presentation and not necessarily used for data analysis. Graphical data are presented as means±SE for a minimum of three replicate samples. […]

Raf (Ser259) = assay: Western blot of Raf phosphorylation in H4IIE cells; details: 6 min, one experiment
Description: (§4) Tissue culture media, antibiotics, fetal bovine serum (FBS) and Nunc tissue culture plates were purchased from Invitrogen Canada Inc. (Burlington, Ontario, Canada, L7P 1A1). Insulin (Sigma-Aldrich Canada Ltd., Oakville, Ontario, Canada, L6H 6J8) was dissolved in water and added directly to cells at a concentration of 250 nM unless otherwise indicated. The BWE was prepared and analyzed as described in Example 1. Two μL of the BWE were added directly to cells unless otherwise indicated. This amount was chosen on the basis of equivalence to insulin. Myo-inositol (Sigma-Aldrich Canada Ltd.) and D-chiro-inositol (Industrial Research Ltd., Wellington, New Zealand) were dissolved in water at an equal concentration to the amounts present in the BWE (Table 3) and 2 μL of each solution (0.1% v/v final concentration) was added directly to cells.
as §1, §2, §3
(§5) Quantification of data obtained on film (Kodak X-omat) was accomplished with a GS800 imaging densitometer (Bio-Rad Laboratories) under nonsaturating conditions with local background subtraction. Although multiple exposures were acquired to ensure the absence of film saturation, the experimental figures typically show longer exposures selected specifically for visual presentation and not necessarily used for data analysis. Graphical data are presented as means±SE for a minimum of three replicate samples.

PDK-1 (Ser241) = assay: Western blot of PDK-1 phosphorylation in H4IIE cells; details: 6 min, one experiment
Description: as §4, §1, §2, §3, §5

H4IIE cells = assay: 3H-deoxyglucose uptake by H4IIE cells; details: H4IIE cells; pre-incubated with inhibitor, then insulin
Description: Tissue culture media, antibiotics, fetal bovine serum (FBS) and Nunc tissue culture plates were purchased from Gibco-BRL (division of Invitrogen Canada Inc.). Insulin (Sigma-Aldrich Canada Ltd.) was dissolved in water and added directly to cells at a final concentration of 10^−6 M. The buckwheat extract was prepared and analyzed as in Example 1. Two μL of the buckwheat extract were added directly to cells unless otherwise indicated. Myo-inositol (Sigma Aldrich Canada Ltd.) and D-chiro-inositol (Industrial Research Ltd.) were dissolved in water at an equal concentration to the amounts present in the BWE (Table 3) and 2 μL of each solution was added directly to cells.
Rat H4IIE hepatoma cells (American Type Culture Collection, CRL 1548) were cultured as described in Example 3. Briefly, cells were maintained in α-modified Eagle's media containing 10% FBS, 2 mM glutamine, 50 μg·mL^−1 streptomycin and 50 μg·mL^−1 penicillin. Cells were plated and grown to 70% confluence. All cells were placed into serum-free medium for 72 h before addition of stimulating agents to ensure entry into a quiescent state.
^3H-deoxyglucose uptake was assayed using the method disclosed by Harrison et al. (1990, J. Biol. Chem. 265(10):5793-5801). Quiescent H4IIE cells, in 24-well culture dishes containing 1 mL serum-free medium, were washed three times with physiological salt solution (PSS) ([…], pH 7.4). Cells were placed into 0.5 mL PSS and pre-incubated with inhibitors for 10 minutes prior to the 20 minute stimulation with treatments (insulin, BWE, D-CI, MI). For all experiments, insulin was added at a concentration of 10^−6 M whereas 2 μL volumes of the BWE, D-CI, or MI (0.4% v/v final concentration) were added to cells unless otherwise indicated in figures. Sugar uptake was initiated by the addition of ^3H-deoxyglucose to a final assay concentration of 0.1 mM glucose (1 mCi/mL) and the cells were subsequently incubated for 5 minutes at 37° C. After two rapid washes with ice-cold PSS (0.5-1 mL/well), the cells were solubilized with 0.4 mL of 0.1% SDS, and ^3H was detected in 3 mL of EcoLume scintillant (MP Biomedicals Inc., Costa Mesa, Calif., USA, 92626).
Statistical significance between treatments was determined by one-way ANOVA and by Duncan's multiple range test for means testing (SAS v.9.1, SAS Institute Inc., Cary, N.C.). […] Data are expressed as the mean±SE.
Since insulin has the same effect, we compared the ability of BWE, insulin and two insulin-mimetic compounds (D-CI and MI) to stimulate glucose uptake by H4IIE hepatoma cells. […] Radio-labelled deoxyglucose was added to the medium and glucose uptake was determined by the detection of ^3H in cells.
Fractions (˜1.0 ml) from each solvent extraction were collected and assayed for their effects on MAPK activation as described in Example 3. The effects of selected fractions, alone or in combination with insulin, on the uptake of labelled glucose were assessed following the methods described in Example 4. […] The effects of the solvent fractions on H4IIE cells were assessed with 20-min exposure periods after which, sugar uptake was initiated by the addition of ^3H-deoxyglucose to a final assay concentration of 0.1 mM glucose (1 mCi/mL) and the cells were subsequently incubated for 5 minutes at 37° C. After two rapid washes with ice-cold PSS (0.5-1 mL/well), the cells were solubilized with 0.4 mL of 0.1% SDS, and ^3H was detected in 3 mL of EcoLume scintillant. […]

[2] = BWE-stimulated, 15-min preincubation with the inhibitor (None = BWE alone)
[3] = insulin-stimulated, 15-min preincubation with the inhibitor (None = insulin alone)
[4] = BWE treatment, 15-min preincubation with PKA/PKC inhibitor (None = BWE alone)
[5] = insulin treatment, 15-min preincubation with PKA/PKC inhibitor (None = insulin alone)

| Molecule | p42/44 P-MAPK (Thr202/Tyr204) phosphorylation, stimulation (fold) relative to the control [1, 2] [fold] | p42/44 P-MAPK (Thr202/Tyr204) phosphorylation, stimulation (fold) relative to the control [1, 3] [fold] | Raf (Ser259) phosphorylation, stimulation (fold) relative to the control (Raf (Ser259); [2]) [fold] | Raf (Ser259) phosphorylation, stimulation (fold) relative to the control (Raf (Ser259); [3]) [fold] | PDK-1 (Ser241) phosphorylation, stimulation (fold) relative to the control (PDK-1 (Ser241); [2]) [fold] | PDK-1 (Ser241) phosphorylation, stimulation (fold) relative to the control (PDK-1 (Ser241); [3]) [fold] | effect of the inhibitor on insulin- and BWE-stimulated phosphorylation of MAPK [1] | phosphorylation of MAPK, stimulation (fold) relative to the control (Table 6) [1, 4] [fold] | phosphorylation of MAPK, stimulation (fold) relative to the control (Table 6) [1, 5] [fold] | also measured |
| --- | --- | --- | --- | --- | --- | --- | --- | --- | --- | --- |
| N#C/C(=C/c1ccc(O)c(O)c1)C(=O)NCc1ccccc1 [AG490] | 12.9 | 16.4 | 0.16 | 0.13 | 0.89 | 1.91 |  |  |  |  |
| 1-butanol |  |  |  |  |  |  | required for stimulation of MAPK by insulin and the BWE |  |  | effect of the inhibitor on insulin-stimulated glucose uptake (FIG. 23) (H4IIE cells): decreased insulin-stimulated glucose uptake although the effect was not significant |
| O=c1cc(N2CCOCC2)oc2c(-c3ccccc3)cccc12 [LY294002] | 13.1 | 10.4 | 0.08 | 0.22 | 0.61 | 1.40 |  |  |  |  |
| C[C@H]1CCC/C=C/[C@@H]2C[C@H](O)C[C@H]2[C@H](O)/C=C/C(=O)O1 [brefeldin, Brefeldin A] |  |  |  |  |  |  | not involved in this process |  |  |  |
| Cc1ccc(-c2nn(C(C)(C)C)c3ncnc(N)c23)cc1 [PP1] |  |  |  |  |  |  | required for stimulation of MAPK by the BWE only |  |  |  |
| CC(=O)c1c(O)c(C)c(O)c(Cc2c(O)c3c(c(C(=O)/C=C/c4ccccc4)c2O)OC(C)(C)C=C3)c1O [Rottlerin] |  |  |  |  |  |  |  | 3.85 | 2.46 |  |
| COc1ccc2c(c1)CC[C@@H]1[C@@H]2CC[C@]2(C)[C@@H](NCCCCCCN3C(=O)C=CC3=O)CC[C@@H]12 [U73] | 8.6 | 13.4 | 0.12 | 0.99 | 0.49 | 2.30 |  |  |  |  |
| CC(C)(C)c1cc(C=C(C#N)C#N)cc(Br)c1O [AG1024] |  | 16.74 |  | 0.26 |  | 2.30 |  |  |  |  |
| Cn1c2ccccc2c2c3c(c4c5ccccc5n(CCC#N)c4c21)CNC3=O [Go6976] |  |  |  |  |  |  |  | 4.32 | 4.68 |  |
| COc1ccc2c(c1)c1c3c(c4c5ccccc5n(C)c4c1n2CC(O)CN(C)C)C(=O)NC3=O (stereo not shown) [Go7874] |  |  |  |  |  |  |  | 3.10 | 2.60 |  |
